From patent publication US6384041B1, “Bicyclic sPLA2 inhibitors” (Eli Lilly and Company, priority 1998, dated 2002)

Target: T1, recombinant human secreted phospholipase A2 (Homo sapiens, UniProt P14555)
T1 sequence (P14555 21-144): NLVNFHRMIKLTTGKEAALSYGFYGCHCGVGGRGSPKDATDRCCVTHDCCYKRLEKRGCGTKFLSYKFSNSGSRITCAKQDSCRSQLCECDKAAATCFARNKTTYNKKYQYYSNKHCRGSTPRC
Assay: Human Recombinant hnp-sPLA2 Chromogenic Assay
Format: biochemical
Conditions: not given
Description: The following chromogenic assay procedure was used to identify and evaluate inhibitors of recombinant human secreted phospholipase A2.The assay described herein has been adapted for high volume screening using 96 well microtiter plates. A general description of this assay method is found in the article, “Analysis of Human Synovial Fluid Phospholipase A2 on Short Chain Phosphatidylcholine-Mixed Micelles: Development of a Spectrophotometric Assay Suitable for a Microtiterplate Reader”, by Laure J. Reynolds, Lori L. Hughes, and Edward A Dennis, Analytical Biochemistry, 204, pp. 190-197, 1992 (the disclosure of which is incorporated herein by reference): Reagents:
Bovine Serum Albumin (fatty acid free) (1 g/L)
(Sigma A-7030, product of Sigma Chemical Co. St. Louis Mo., USA) […]
pH 7.5 (adjust with NaOH)
Adjust pH to 4.5 with acetic acid
DTNB—5,5′-dithiobis-2-nitrobenzoic acid
Racemic Diheptanoyl Thio-PC racemic 1,2-bis(heptanoylthio)-1,2-dideoxy-sn-glycero-3-phosphorylcholine TRITON X-100™ prepare at 6.249 mg/ml in reaction buffer to equal […].
A measured volume of racemic dipheptanoyl thio PC supplied in chloroform at a concentration of 100 mg/ml is taken to dryness and redissolved in 10 millimolar TRITON X-100™ nonionic detergent aqueous solution.
Reaction Buffer is added to the solution, then DTNB to give the Reaction Mixture.
The reaction mixture thus obtained contains lmM diheptanoly thio-PC substrate, 0.29 mm Triton X-100™ detergent, and 0.12 mm DTMB in a buffered aqueous solution at pH 7.5.
1. Add 0.2 ml reaction mixture to all wells;
2. Add 10 ul test compound (or solvent blank) to appropriate wells, mix 20 seconds;
3. Add 50 nanograms of sPLA2 (10 microliters) to appropriate wells;
4. Incubate plate at 40° C. for 30 minutes;
5. Read absorbance of wells at 405 nanometers with an automatic plate reader.
All compounds were tested in triplicate. Typically, compounds were tested at a final concentration of 5 ug/ml. […] Lack of color development at 405 nanometers evidenced inhibition. Compounds initially found to be active were reassayed to confirm their activity and, if sufficiently active, IC50 values were determined. […] In all cases, % inhibition measured at 405 nanometers generated by enzyme reactions containing inhibitors relative to the uninhibited control reactions was determined. Each sample was titrated in triplicate and result values were averaged for plotting and calculation of IC50 values. IC50 were determined by plotting log concentration versus inhibition values in the range from 10-90% inhibition.

SMILES	IC50 [nM]
CCc1c(C(=O)C(N)=O)c2c(OCC(=O)O)nc(C)nc2n1Cc1ccccc1 [—H|—CH3|phenyl, [[2-methyl-5-(aminooxoacetyl)-6-ethyl-7-(phenylmethyl)-7H-pyrrolo[2,3-d]pyrimidin-4-yl]oxy]acetic Acid]	88
CCc1c(C(=O)C(N)=O)c2c(OCC(=O)O)ncnc2n1Cc1cccc(Cl)c1 [—H|—H|m-Cl-phenyl, [[5-(aminooxoacetyl)-6-ethyl-7-[(3-chlorophenyl)methyl]-7H-pyrrolo[2,3-d]pyrimidin-4-yl]oxy]acetic acid]	91
CCc1c(C(=O)C(N)=O)c2c(OCC(=O)O)ncnc2n1Cc1cccc(F)c1 [—H|—H|m-F-phenyl, [[5-(aminooxoacetyl)-6-ethyl-7-[(3-fluorophenyl)methyl]-7H-pyrrolo[2,3-d]pyrimidin-4-yl]oxy]acetic acid]	98
CCc1c(C(=O)C(N)=O)c2c(OCC(=O)O)ncnc2n1Cc1ccccc1 [—H|—H|phenyl, [[5-(aminooxoacetyl)-6-ethyl-7-(phenylmethyl)-7H-pyrrolo[2,3-d]pyrimidin-4-yl]oxy]acetic acid]	48
CCc1c(C(=O)C(N)=O)c2c(OCC(=O)O)nc(OC)nc2n1Cc1ccccc1 [—H|—O—CH3|phenyl, [[2-methoxy-5-(aminooxoacetyl)-6-ethyl-7-(phenylmethyl)-7H-pyrrolo[2,3-d]pyrimidin-4-yl]oxy]acetic acid]	46
CCc1c(C(=O)C(N)=O)c2c(OCC(=O)O)nc(SC)nc2n1Cc1cccc(C(F)(F)F)c1 [—H|—S-methyl|m-CF3-phenyl, [[2-(methylthio)-5-(aminooxoacetyl)-6-ethyl-7-[[3-(trifluoromethyl)phenyl]methyl]-7H-pyrrolo[2,3-d]pyrimidin-4-yl]oxy]acetic acid]	13
CCc1c(C(=O)C(N)=O)c2c(OCC(=O)O)nc(SC)nc2n1Cc1cccc(Cl)c1 [—H|—S-methyl|m-Cl-phenyl, [[2-(methylthio)-5-(aminooxoacetyl)-6-ethyl-7-[(3-chlorophenyl)methyl]-7H-pyrrolo[2,3-d]pyrimidin-4-yl]oxy]acetic acid]	19
CCc1c(C(=O)C(N)=O)c2c(OCC(=O)O)nc(SC)nc2n1Cc1cccc(F)c1 [—H|—S-methyl|m-F-phenyl, [[2-(methylthio)-5-(aminooxoacetyl)-6-ethyl-7-[(3-fluorophenyl)methyl]-7H-pyrrolo[2,3-d]pyrimidin-4-yl]oxy]acetic acid]	16
CCc1c(C(=O)C(N)=O)c2c(OCC(=O)O)nc(SC)nc2n1Cc1ccccc1-c1ccccc1 [—H|—S-methyl|o-phenyl-phenyl, [[2-(methylthio)-5-(aminooxoacetyl)-6-ethyl-7-([1,1′-biphenyl]-2-ylmethyl)-7H-pyrrolo[2,3-d]pyrimidin-4-yl]oxy]acetic acid]	9
CCc1c(C(=O)C(N)=O)c2c(OCC(=O)O)nc(Sc3ccccc3)nc2n1Cc1ccccc1 [—H|—S-phenyl|phenyl, [[2-(phenylthio)-5-(aminooxoacetyl)-6-ethyl-7-(phenylmethyl)-7H-pyrrolo[2,3-d]pyrimidin-4-yl]oxy]acetic acid]	11
CCc1c(C(=O)C(N)=O)c2c(OCC(=O)O)nc(SC)nc2n1Cc1ccccc1 [—H|—SCH3|phenyl, [[2-(methylthio)-5-(aminooxoacetyl)-6-ethyl-7-(phenylmethyl)-7H-pyrrolo[2,3-d]pyrimidin-4-yl]oxy]acetic acid]	19

Same assay, conditions: chromogenic assay, diheptanoyl thio-PC substrate, pH 7.5, 40° C. for 30 minutes, absorbance at 405 nm; average of n = 3-4; read-out: IC50 (micro-molar) n = 3 − 4 (ave)

SMILES	IC50 [nM]
CCc1c(C(=O)C(N)=O)c2c(OCC(=O)OC)nc(C)nc2n1Cc1ccccc1 [—CH3|—CH3|phenyl, [[2-methyl-5-(aminooxoacetyl)-6-ethyl-7-(phenylmethyl)-7H-pyrrolo[2,3-d]pyrimidin-4-yl]oxy]acetic acid methyl ester]	4650
CCc1c(C(=O)C(N)=O)c2c(OCC(=O)OC)ncnc2n1Cc1ccccc1 [—CH3|—H|phenyl, [[5-(aminooxoacetyl)-6-ethyl-7-(phenylmethyl)-7H-pyrrolo[2,3-d]pyrimidin-4-yl]oxy]acetic acid methyl ester]	5460
CCc1c(C(=O)C(N)=O)c2c(OCC(=O)O)ncnc2n1Cc1cccc(C(F)(F)F)c1 [—H|—H|m-CF3-phenyl, [[5-(aminooxoacetyl)-6-ethyl-7-[[3-(trifluoromethyl)phenyl]methyl]-7H-pyrrolo[2,3-d]pyrimidin-4-yl]oxy]acetic acid]	124
CCc1c(C(=O)C(N)=O)c2c(OCC(=O)O)ncnc2n1Cc1ccccc1-c1ccccc1 [—H|—H|o-phenyl-phenyl, [[5-(aminooxoacetyl)-6-ethyl-7-([1,1′-biphenyl]-2-ylmethyl)-7H-pyrrolo[2,3-d]pyrimidin-4-yl]oxy]acetic acid]	114
